According to US5616573A, “Glucocorticoids” (Schering Aktiengesellschaft, priority 1993, dated 1997):
*1 amine or outer side, *2 acyl side, *3 side chain or, on linkers, in order; H or OH if unused. Where a SMILES comes first, the peptide text is derived from it. [ ]: non-standard residue; d: D form. The star is where a group is joined. Methylprednisolone(17-OCOEt) = CCC(=O)O[C@]1(C(=O)CO*)CC[C@H]2[C@@H]3C[C@H](C)C4=CC(=O)C=C[C@]4(C)[C@H]3[C@@H](O)C[C@@]21C; X2 = C[C@@H]1C[C@H]2[C@@H]3C[C@H](F)C4=CC(=O)C=C[C@]4(C)[C@H]3[C@@H](O)C[C@]2(C)[C@H]1C(=O)CO*; Phthalimidoacetyl = O=C1c2ccccc2C(=O)N1CC(=O)*; Diphenylacetyl = O=C(C(c1ccccc1)c1ccccc1)*; Fmoc = O=C(OCC1c2ccccc2-c2ccccc21)*; 2Naphthoyl = O=C(c1ccc2ccccc2c1)*; X6 = O=C(CCn1c2ccccc2c2ccccc21)*; X7 = O=S(=O)(c1ccc(Cl)cc1)*; X8 = c1ccc(N(c2ccccc2)*)cc1; Cbz = O=C(OCc1ccccc1)*; X4 = O=C(C=Cc1ccccc1)*; Boc = CC(C)(C)OC(=O)*; Aib = CC(C)(N)C(=O)O; CO = O=C([*:1])[*:2]

Assays:
rat ear = assay: Local antiinflammatory action: modified rat ear test according to Tonelli (croton oil); assay type: in vivo; settings: topical, * = significant (p < 0.05); for Edema [% inhibition]: ear weight, 16 hours after irritant; for Infiltration [% inhibition]: granulocytic infiltrate (myeloperoxidase and leukocyte-elastase), 16 hours
Procedure: The antiinflammatory activity of the corticoid-21-oligopeptide esters is performed in a modified rat ear test according to Tonelli. The modifications are based on changes of irritant solution (4% croton oil, 10% DMSO in ethanol), the type of administration (application of the solution with pipette) and the evaluation of the test 16 hours after administration of the irritant solution. At this time, both the inhibition of the edema by measuring the ear weight and the inhibition of the granulocytic infiltrate by measuring the granulocyte marker myeloperoxidase and leukocyte-elastase in the ear homogenate can be determined. The group size was 6 animals in each case.

Esterases of Rat Skin = assay: Cleavage in the Homogenate of Normal Rat Skin (unspecific cleavage by esterases of rat skin); assay type: in vitro ADME; settings: percent of hydrolysis rate of 6α-methylprednisolone-17-propionate-21-acetate; approximately 100 μmol/l, pH=7.4, 37° C.
Procedure: (§1) The homogenate of the skin of male rats (0.1 mol/l of phosphate buffer, pH=7.4) is centrifuged for 20 minutes at 10,000 g. The supernatant is adjusted in phosphate buffer to a protein concentration of 3 mg/ml. The test substances in 20 μl of ethanol are added to 1 ml of this homogenate. The final concentration of the corticoid derivatives is approximately 100 μmol/l. The incubation takes place for different periods at 37° C. At the end of incubation, the samples are extracted three times with 3 ml of chloroform. The combined extracts are evaporated to dryness under nitrogen and taken up with 100 μl of ethanol. The ethanolic solutions are mixed with the same volume of water and the saponification products are separated by HPLC (RP 18, acetonitrile/water-gradient, detection 240 nm). The relative hydrolysis rate is indicated in percent of the hydrolysis rate of the 6α-methylprednisolone-17-propionate-21-acetate.

Leukocyte Elastase = target: T1, Leukocyte Elastase (Homo sapiens, UniProt P08246); assay: Cleavage of Glucocorticoid-21-Oligopeptide Esters by Leukocyte Elastase in the lysate of human neutrophilic granulocytes; assay type: biochemical; settings: lysate of human neutrophilic granulocytes, 10^6 cells per ml, 1 hour at 37° C.; Fmoc-Ala-Ala-Pro-Val-O-MPP is used as reference
T1 construct: also pure human sputum elastase (Elastin Products)
T1 sequence (P08246 30-267): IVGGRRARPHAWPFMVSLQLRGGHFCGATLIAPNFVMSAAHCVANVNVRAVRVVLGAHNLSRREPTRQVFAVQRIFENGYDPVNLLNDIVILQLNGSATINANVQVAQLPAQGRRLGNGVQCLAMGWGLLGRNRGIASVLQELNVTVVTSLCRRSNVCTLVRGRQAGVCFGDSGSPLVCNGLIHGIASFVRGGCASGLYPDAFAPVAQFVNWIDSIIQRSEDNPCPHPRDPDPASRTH
Procedure: as §1
Polymorphonuclear granulocytes are isolated from donor blood. The cells are lysed in a density of 10^6 cells per ml. 1 ml each of the lysate is mixed with 20 μl of ethanolic corticoid solution (5 mmol/l) After 1 hour of incubation at 37° C., the samples are extracted three times with 3 ml of chloroform and worked up as described above for HPLC analysis. The cleavage of the prodrugs according to the invention can be inhibited under these test conditions by the addition of the specific elastase inhibitor MeO-succinyl-Ala-Ala-Pro-Val-chloromethylketone to 90%. Furthermore, the compounds are also hydrolyzed by pure human sputum-elastase (elastin products).

[1] = concentration 0.003 (unit not given)
[2] = concentration 0.03 (unit not given)
[3] = concentration 0.3 (unit not given)

| Compound | Relative Hydrolysis Rate [%] (Esterases of Rat Skin) | also measured |
| --- | --- | --- |
| CCC(=O)O[C@]1(C(=O)COC(C)=O)CC[C@H]2[C@@H]3C[C@H](C)C4=CC(=O)C=C[C@]4(C)[C@H]3[C@@H](O)C[C@@]21C [6α-methylprednisolone-17-propionate-21-acetate, reference compound] | 100 | Edema [% inhibition] (rat ear; [1]): 44%; Infiltration [% inhibition] (rat ear; [1]): 12%; Edema [% inhibition] (rat ear; [2]): 62%; Infiltration [% inhibition] (rat ear; [2]): 45%; Edema [% inhibition] (rat ear; [3]): 67%; Infiltration [% inhibition] (rat ear; [3]): 78% |
| CCC(=O)O[C@]1(C(=O)COC(=O)[C@@H](NC(=O)[C@@H]2CCCN2C(=O)[C@H](C)NC(=O)[C@H](C)NC(=O)OCc2ccccc2)C(C)C)CC[C@H]2[C@@H]3C[C@H](C)C4=CC(=O)C=C[C@]4(C)[C@H]3[C@@H](O)C[C@@]21C [Example 5, N-(N-(N-(N-(Phenylmethoxycarbonyl)-L-alanyl)-L-alanyl)-L-prolyl) -L-valine [11β21-dihydroxy-3,20-dioxo-6α-methyl-17-propionyloxy-pregna-1,4-dien-21-yl] ester] (Cbz-AAPV-{Methylprednisolone(17-OCOEt)}) | – | Relative Hydrolysis Rate [%] (Leukocyte Elastase): 160-230% |
| CCC(=O)O[C@]1(C(=O)COC(=O)[C@@H](NC(=O)[C@@H]2CCCN2C(=O)[C@H](C)NC(=O)[C@H](C)NC(=O)C(c2ccccc2)c2ccccc2)C(C)C)CC[C@H]2[C@@H]3C[C@H](C)C4=CC(=O)C=C[C@]4(C)[C@H]3[C@@H](O)C[C@@]21C [Example 10, N-(N-(N-(N-((Diphenylmethyl)carbonyl)-L-alanyl)-L-alanyl)-L -prolyl)-L-valine [11β,21-dihydroxy-3,20-dioxo-6α-methyl-17-propionyloxy-pregna-1,4-dien-21-yl] ester] (Diphenylacetyl-AAPV-{Methylprednisolone(17-OCOEt)}) | 6 | – |
| CCC(=O)O[C@]1(C(=O)COC(=O)[C@@H](NC(=O)[C@@H]2CCCN2C(=O)[C@H](C)NC(=O)[C@H](C)NC(=O)N(c2ccccc2)c2ccccc2)C(C)C)CC[C@H]2[C@@H]3C[C@H](C)C4=CC(=O)C=C[C@]4(C)[C@H]3[C@@H](O)C[C@@]21C [Example 11, N-(N-(N-(N-(Diphenylcarbamoyl)-L-alanyl)-L-alanyl)-L-prolyl)-L-valine [11β,21-dihydroxy-3,20-dioxo-6α-methyl-17-propionyloxy-pregna-1,4-dien-21-yl] ester] ({X8-CO}-AAPV-{Methylprednisolone(17-OCOEt)}) | 14 | – |
| CCC(=O)O[C@]1(C(=O)COC(=O)[C@@H](NC(=O)[C@@H]2CCCN2C(=O)[C@H](C)NC(=O)[C@H](C)NC(=O)c2ccc3ccccc3c2)C(C)C)CC[C@H]2[C@@H]3C[C@H](C)C4=CC(=O)C=C[C@]4(C)[C@H]3[C@@H](O)C[C@@]21C [Example 12, N-(N-(N-(N-(2-Naphthoyl)-L-alanyl)-L-alanyl)-L-prolyl)-L-valine [11β,21-dihydroxy-3,20-dioxo-6α-methyl-17-propionyloxy-pregna-1,4-dien-21-yl] ester] (2Naphthoyl-AAPV-{Methylprednisolone(17-OCOEt)}) | 4 | – |
| CCC(=O)O[C@]1(C(=O)COC(=O)[C@@H](NC(=O)[C@@H]2CCCN2C(=O)[C@H](C)NC(=O)[C@H](C)NC(=O)C=Cc2ccccc2)C(C)C)CC[C@H]2[C@@H]3C[C@H](C)C4=CC(=O)C=C[C@]4(C)[C@H]3[C@@H](O)C[C@@]21C [Example 13] (X4-AAPV-{Methylprednisolone(17-OCOEt)}) | 5 | – |
| CCC(=O)O[C@]1(C(=O)COC(=O)[C@@H](NC(=O)[C@@H]2CCCN2C(=O)[C@H](C)NC(=O)[C@H](C)NS(=O)(=O)c2ccc(Cl)cc2)C(C)C)CC[C@H]2[C@@H]3C[C@H](C)C4=CC(=O)C=C[C@]4(C)[C@H]3[C@@H](O)C[C@@]21C [Example 14, N-(N-(N-(N-(4-Chlorobenzenesulfonyl)-L-alanyl)-L-alanyl)-L -prolyl)-L-valine [11β,21-dihydroxy-3,20-dioxo-6α-methyl-17-propionyloxy-pregna-1,4-dien-21-yl] ester] (X7-AAPV-{Methylprednisolone(17-OCOEt)}) | 6 | – |
| CCC(=O)O[C@]1(C(=O)COC(=O)[C@@H](NC(=O)[C@@H]2CCCN2C(=O)[C@H](C)NC(=O)[C@H](C)NC(=O)CCn2c3ccccc3c3ccccc32)C(C)C)CC[C@H]2[C@@H]3C[C@H](C)C4=CC(=O)C=C[C@]4(C)[C@H]3[C@@H](O)C[C@@]21C [Example 16, N-(N-(N-(N-(3-(Carbazol-9-yl)-propionyl)-L-alanyl)-L-alanyl)-L -prolyl)-L-valine [11β,21-dihydroxy-3,20-dioxo-6α-methyl-17-propionyloxy-pregna-1,4-dien-21-yl] ester] (X6-AAPV-{Methylprednisolone(17-OCOEt)}) | 3 | – |
| CCC(=O)O[C@]1(C(=O)COC(=O)[C@@H](NC(=O)[C@@H]2CCCN2C(=O)[C@H](C)NC(=O)[C@H](C)NC(=O)CN2C(=O)c3ccccc3C2=O)C(C)C)CC[C@H]2[C@@H]3C[C@H](C)C4=CC(=O)C=C[C@]4(C)[C@H]3[C@@H](O)C[C@@]21C [Example 17, N-(N-(N-(N-(N-(Phthaloyl)-glycyl)-L-alanyl)-L-alanyl)-L-prolyl) -L-valine [11β,21-dihydroxy-3,20-dioxo-6α-methyl-17-propionyloxy-pregna-1,4-dien-21-yl] ester] (Phthalimidoacetyl-AAPV-{Methylprednisolone(17-OCOEt)}) | 49 | – |
| CCC(=O)O[C@]1(C(=O)COC(=O)[C@@H](NC(=O)[C@@H]2CCCN2C(=O)[C@H](C)NC(=O)[C@H](C)NC(=O)C(C)(C)NC(=O)OCC2c3ccccc3-c3ccccc32)C(C)C)CC[C@H]2[C@@H]3C[C@H](C)C4=CC(=O)C=C[C@]4(C)[C@H]3[C@@H](O)C[C@@]21C [Example 18, N-(N-(N-(N-(N-((9H-Fluoren-9-ylmethoxy)carbonyl)-2-amino-2-methyl-propionyl)-L-alanyl)-L-alanyl)-L-prolyl)-L-valine [11β,21-dihydroxy-3,20-dioxo-6α-methyl-17-propionyloxy-pregna-1,4-dien-21-yl] ester] (Fmoc-[Aib]AAPV-{Methylprednisolone(17-OCOEt)}) | – | Relative Hydrolysis Rate [%] (Leukocyte Elastase): 130% |
| CC(C)[C@H](NC(=O)[C@@H]1CCCN1C(=O)[C@H](C)NC(=O)[C@H](C)NC(=O)OC(C)(C)C)C(=O)OCC(=O)[C@H]1[C@H](C)C[C@H]2[C@@H]3C[C@H](F)C4=CC(=O)C=C[C@]4(C)[C@H]3[C@@H](O)C[C@@]21C [Example 32, N-(N-(N-(N-((1,1-Dimethyl)-ethoxycarbonyl)-L-alanyl)-L-alanyl)-L -prolyl)-L-valine [6α-fluoro-11β,21-dihydroxy-16α-methyl-3,20dioxo-pregna-1,4-dien-21-yl] ester] (Boc-AAPV-X2) | – | Relative Hydrolysis Rate [%] (Leukocyte Elastase): 380% |
| CCCCC(=O)O[C@]1(C(=O)COC(=O)[C@@H](NC(=O)[C@@H]2CCCN2C(=O)[C@H](C)NC(=O)[C@H](C)NC(=O)OC(C)(C)C)C(C)C)[C@@H](C)C[C@H]2[C@@H]3CCC4=CC(=O)C=C[C@]4(C)[C@@]3(F)[C@@H](O)C[C@@]21C [Example 38, N-(N-(N-(N-((1,1-Dimethyl)ethoxycarbonyl)-L-alanyl)-L-alanyl)-L -prolyl)-L-valine [9α-fluoro-11β,21-dihydroxy-16β-methyl-3,20-dioxo-17-valeroyloxy-pregna-1,4-dien-21-yl] ester] | 0 | – |
